# Reference: the supplement of paper PMC10307832
# Columns and labels:
# Assay in all cases: relative viability (nuclei count vs DMSO), 5 days (fraction); higher = more cells survive
# HCC-78 = tested on: HCC-78
# In short: (§1)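 Cells from lung cancer lines were seeded into 1536-well plates and, one day later, dosed by pin tool. Treatments were either a single drug or a fixed dose of an anchor drug with five library-drug doses (not always all listed) in √10 steps. After 5 days, nuclei were stained in a one-step fixation (final 0.05% Triton X-100, 1% formaldehyde, 1 ug/ml Hoechst) and counted on 4× images, and relative viability is the treated-to-vehicle nuclei ratio, as the median of duplicate plates.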
# PC-14 = tested on: PC-14
# In short: as §1
# UMC-11 = tested on: UMC-11
# In short: as §1
# HCC-15 = tested on: HCC-15
# In short: as §1
# NCI-H2023 = tested on: NCI-H2023
# In short: as §1
# EPLC-272H = tested on: EPLC-272H
# In short: as §1
# COR-L23 = tested on: COR-L23
# In short: as §1
# SW 1573 = tested on: SW 1573
# In short: as §1
# LC-2-ad = tested on: LC-2-ad
# In short: as §1
# NCI-H1651 = tested on: NCI-H1651
# In short: as §1
# NCI-H2126 = tested on: NCI-H2126
# In short: as §1
# ABC-1 = tested on: ABC-1
# In short: as §1
# NCI-H1915 = tested on: NCI-H1915
# In short: as §1
# NCI-H1993 = tested on: NCI-H1993
# In short: as §1
# NCI-H358 = tested on: NCI-H358
# In short: as §1
# NCI-H2085 = tested on: NCI-H2085
# In short: as §1
# NCI-H1355 = tested on: NCI-H1355
# In short: as §1
# NCI-H838 = tested on: NCI-H838
# In short: as §1
# NCI-H2347 = tested on: NCI-H2347
# In short: as §1
# NCI-H650 = tested on: NCI-H650
# In short: as §1
# NCI-H2342 = tested on: NCI-H2342
# In short: as §1
# LU99A = tested on: LU99A
# In short: as §1
# HARA = tested on: HARA
# In short: as §1
smiles,measurement,setting,value
C=C1C(=O)O[C@@H](CCCCCCCC)[C@@H]1C(=O)O [C-75] + Cc1cc(Nc2cc(N3CCN(C)CC3)nc(Sc3ccc(NC(=O)C4CC4)cc3)n2)n[nH]1 [Tozasertib] (partner 0.1 µM),relative viability,HCC-78; first compound 0.08 µM,0.431
same,relative viability,HCC-78; first compound 0.253 µM,0.505
same,relative viability,HCC-78; first compound 0.8 µM,0.458
same,relative viability,HCC-78; first compound 2.53 µM,1.28
same,relative viability,HCC-78; first compound 8 µM,0.444
same,relative viability,PC-14; first compound 0.08 µM,0.597
same,relative viability,PC-14; first compound 0.253 µM,0.479
same,relative viability,PC-14; first compound 0.8 µM,0.548
same,relative viability,PC-14; first compound 2.53 µM,0.544
same,relative viability,PC-14; first compound 8 µM,0.578
same,relative viability,UMC-11; first compound 0.08 µM,0.213
same,relative viability,UMC-11; first compound 0.253 µM,0.202
same,relative viability,UMC-11; first compound 0.8 µM,0.209
same,relative viability,UMC-11; first compound 2.53 µM,0.161
same,relative viability,UMC-11; first compound 8 µM,0.227
same,relative viability,HCC-15; first compound 0.08 µM,0.457
same,relative viability,HCC-15; first compound 0.253 µM,0.608
same,relative viability,HCC-15; first compound 0.8 µM,0.407
same,relative viability,HCC-15; first compound 2.53 µM,0.427
same,relative viability,HCC-15; first compound 8 µM,0.39
same,relative viability,NCI-H2023; first compound 0.08 µM,0.407
same,relative viability,NCI-H2023; first compound 0.253 µM,0.443
same,relative viability,NCI-H2023; first compound 0.8 µM,0.302
same,relative viability,NCI-H2023; first compound 2.53 µM,0.384
same,relative viability,NCI-H2023; first compound 8 µM,0.409
same,relative viability,EPLC-272H; first compound 0.08 µM,0.299
same,relative viability,EPLC-272H; first compound 0.253 µM,0.243
same,relative viability,EPLC-272H; first compound 0.8 µM,0.22
same,relative viability,EPLC-272H; first compound 2.53 µM,0.25
same,relative viability,EPLC-272H; first compound 8 µM,0.208
same,relative viability,COR-L23; first compound 0.08 µM,0.232
same,relative viability,COR-L23; first compound 0.253 µM,0.267
same,relative viability,COR-L23; first compound 0.8 µM,0.209
same,relative viability,COR-L23; first compound 2.53 µM,0.172
same,relative viability,COR-L23; first compound 8 µM,0.179
same,relative viability,SW 1573; first compound 0.08 µM,0.268
same,relative viability,SW 1573; first compound 0.253 µM,0.161
same,relative viability,SW 1573; first compound 0.8 µM,0.189
same,relative viability,SW 1573; first compound 2.53 µM,0.215
same,relative viability,SW 1573; first compound 8 µM,0.184
same,relative viability,LC-2-ad; first compound 0.08 µM,0.515
same,relative viability,LC-2-ad; first compound 0.253 µM,0.503
same,relative viability,LC-2-ad; first compound 0.8 µM,0.443
same,relative viability,LC-2-ad; first compound 2.53 µM,0.418
same,relative viability,LC-2-ad; first compound 8 µM,0.399
same,relative viability,NCI-H1651; first compound 0.08 µM,0.694
same,relative viability,NCI-H1651; first compound 0.253 µM,0.995
same,relative viability,NCI-H1651; first compound 0.8 µM,0.706
same,relative viability,NCI-H1651; first compound 2.53 µM,0.688
same,relative viability,NCI-H1651; first compound 8 µM,0.682
same,relative viability,NCI-H2126; first compound 0.08 µM,0.873
same,relative viability,NCI-H2126; first compound 0.253 µM,0.949
same,relative viability,NCI-H2126; first compound 0.8 µM,0.841
same,relative viability,NCI-H2126; first compound 2.53 µM,0.795
same,relative viability,NCI-H2126; first compound 8 µM,0.777
same,relative viability,ABC-1; first compound 0.08 µM,0.137
same,relative viability,ABC-1; first compound 0.253 µM,0.163
same,relative viability,ABC-1; first compound 0.8 µM,0.198
same,relative viability,ABC-1; first compound 2.53 µM,0.173
same,relative viability,ABC-1; first compound 8 µM,0.183
same,relative viability,NCI-H1915; first compound 0.08 µM,0.405
same,relative viability,NCI-H1915; first compound 0.253 µM,0.403
same,relative viability,NCI-H1915; first compound 0.8 µM,0.432
same,relative viability,NCI-H1915; first compound 2.53 µM,0.409
same,relative viability,NCI-H1915; first compound 8 µM,0.429
same,relative viability,NCI-H1993; first compound 0.08 µM,0.611
same,relative viability,NCI-H1993; first compound 0.253 µM,0.623
same,relative viability,NCI-H1993; first compound 0.8 µM,0.59
same,relative viability,NCI-H1993; first compound 2.53 µM,0.495
same,relative viability,NCI-H1993; first compound 8 µM,0.529
same,relative viability,NCI-H358; first compound 0.08 µM,0.0979
same,relative viability,NCI-H358; first compound 0.253 µM,0.104
same,relative viability,NCI-H358; first compound 0.8 µM,0.104
same,relative viability,NCI-H358; first compound 2.53 µM,0.0847
same,relative viability,NCI-H358; first compound 8 µM,0.103
same,relative viability,NCI-H2085; first compound 0.08 µM,0.798
same,relative viability,NCI-H2085; first compound 0.253 µM,0.746
same,relative viability,NCI-H2085; first compound 0.8 µM,0.79
same,relative viability,NCI-H2085; first compound 2.53 µM,0.803
same,relative viability,NCI-H2085; first compound 8 µM,0.67
same,relative viability,NCI-H1355; first compound 0.08 µM,0.595
same,relative viability,NCI-H1355; first compound 0.253 µM,0.579
same,relative viability,NCI-H1355; first compound 0.8 µM,0.522
same,relative viability,NCI-H1355; first compound 2.53 µM,0.554
same,relative viability,NCI-H1355; first compound 8 µM,0.517
same,relative viability,NCI-H838; first compound 0.08 µM,0.311
same,relative viability,NCI-H838; first compound 0.8 µM,0.229
same,relative viability,NCI-H838; first compound 2.53 µM,0.293
same,relative viability,NCI-H838; first compound 8 µM,0.266
same,relative viability,NCI-H2347; first compound 0.08 µM,0.558
same,relative viability,NCI-H2347; first compound 0.253 µM,0.74
same,relative viability,NCI-H2347; first compound 0.8 µM,0.517
same,relative viability,NCI-H2347; first compound 8 µM,0.534
same,relative viability,NCI-H650; first compound 0.08 µM,0.759
same,relative viability,NCI-H650; first compound 0.253 µM,0.651
same,relative viability,NCI-H650; first compound 0.8 µM,0.718
same,relative viability,NCI-H650; first compound 2.53 µM,0.616
same,relative viability,NCI-H650; first compound 8 µM,0.62
same,relative viability,NCI-H2342; first compound 0.08 µM,0.652
same,relative viability,NCI-H2342; first compound 0.253 µM,0.503
same,relative viability,NCI-H2342; first compound 0.8 µM,0.604
same,relative viability,NCI-H2342; first compound 2.53 µM,0.496
same,relative viability,NCI-H2342; first compound 8 µM,0.472
same,relative viability,LU99A; first compound 0.08 µM,0.272
same,relative viability,LU99A; first compound 0.253 µM,0.251
same,relative viability,LU99A; first compound 0.8 µM,0.253
same,relative viability,LU99A; first compound 2.53 µM,0.283
same,relative viability,LU99A; first compound 8 µM,0.288
same,relative viability,HARA; first compound 0.08 µM,0.149
same,relative viability,HARA; first compound 0.253 µM,0.0813
same,relative viability,HARA; first compound 0.8 µM,0.112
same,relative viability,HARA; first compound 2.53 µM,0.0971
same,relative viability,HARA; first compound 8 µM,0.145
